In this assay the test system is MV-4-11 cells. Kind of assay: Gene expression microarray analysis (Affymetrix PrimeView) and GSEA. The assay is classed as cell-based, human. The note with it: ProbeSet 11743567_s_at; LIST B. The arrangement: RFU PODN (11730768_x_at) / Fold change /veh PODN (11730768_x_at) / RFU LINC00158 (11744669_a_at) / Fold change /veh LINC00158 (11744669_a_at) / RFU DUSP10 (11751237_a_at) / Fold change /veh DUSP10 (11751237_a_at) / RFU ID3 (11757404_x_at) / Fold change /veh ID3 (11757404_x_at) / RFU PLEKHG5 (11737974_s_at) / Fold change /veh PLEKHG5 (11737974_s_at) / RFU LRRC4B (11730491_at) / Fold change /veh LRRC4B (11730491_at) / RFU GIMAP4 (11747438_a_at) / Fold change /veh GIMAP4 (11747438_a_at) / RFU KRT8 (11758183_x_at) / Fold change /veh KRT8 (11758183_x_at) / RFU CNN1 (11734310_a_at) / Fold change /veh CNN1 (11734310_a_at) / RFU VPS37D (11726825_at) / Fold change /veh VPS37D (11726825_at) / RFU C10orf10 (11716522_x_at) / Fold change /veh C10orf10 (11716522_x_at) / RFU KIR2DL2 /// KIR2DL4 /// KIR2DL5A /// KIR2DL5B /// KIR2DS1 /// KIR2DS2 /// KIR2DS3 /// KIR2DS4 /// KIR3DL3 /// KIR3DL3 /// KIR3DS1 (11738374_at) / Fold change /veh KIR2DL2 /// KIR2DL4 /// KIR2DL5A /// KIR2DL5B /// KIR2DS1 /// KIR2DS2 /// KIR2DS3 /// KIR2DS4 /// KIR3DL3 /// KIR3DL3 /// KIR3DS1 (11738374_at) / RFU C1QL1 (11718748_at) / Fold change /veh C1QL1 (11718748_at) / RFU TMPRSS4 (11747572_a_at) / Fold change /veh TMPRSS4 (11747572_a_at) / RFU HAMP (11756126_x_at) / Fold change /veh HAMP (11756126_x_at) / RFU RNFT2 (11725882_a_at) / Fold change /veh RNFT2 (11725882_a_at) / RFU NR4A2 (11747474_a_at) / Fold change /veh NR4A2 (11747474_a_at) / RFU ABCC12 (11746883_a_at) / Fold change /veh ABCC12 (11746883_a_at) / RFU TMEM136 (11760407_x_at) / Fold change /veh TMEM136 (11760407_x_at) / RFU CLDN22 /// WWC2 (11732394_at) / Fold change /veh CLDN22 /// WWC2 (11732394_at) / RFU HLA-DPB1 (11760878_x_at) / Fold change /veh HLA-DPB1 (11760878_x_at) / RFU SPINT1 (11716480_a_at) / Fold change /veh SPINT1 (11716480_a_at) / RFU GAP43 (11754022_s_at) / Fold change /veh GAP43 (11754022_s_at) / RFU A4GNT (11735810_at) / Fold change /veh A4GNT (11735810_at) / RFU PRB3 (11715151_x_at) / Fold change /veh PRB3 (11715151_x_at) / RFU TUBB4B (11761932_at) / Fold change /veh TUBB4B (11761932_at) / RFU CAPN14 (11732068_a_at) / Fold change /veh CAPN14 (11732068_a_at) / RFU TMCC2 (11721928_a_at) / Fold change /veh TMCC2 (11721928_a_at) / RFU IRGQ (11745062_a_at) / Fold change /veh IRGQ (11745062_a_at) / RFU FAM174B (11720279_a_at) / Fold change /veh FAM174B (11720279_a_at) / RFU TMPRSS4 (11748680_a_at) / Fold change /veh TMPRSS4 (11748680_a_at) / RFU FAM212B (11763350_a_at) / Fold change /veh FAM212B (11763350_a_at) / RFU PLEKHG5 (11743358_a_at) / Fold change /veh PLEKHG5 (11743358_a_at) / RFU ZSCAN30 (11745921_a_at) / Fold change /veh ZSCAN30 (11745921_a_at) / RFU CMKLR1 (11741424_a_at) / Fold change /veh CMKLR1 (11741424_a_at) / RFU LOC101060620 /// MAPK8IP1 (11723275_at) / Fold change /veh LOC101060620 /// MAPK8IP1 (11723275_at) / RFU SPTSSB (11747773_x_at) / Fold change /veh SPTSSB (11747773_x_at) / RFU PRSS12 (11739890_at) / Fold change /veh PRSS12 (11739890_at) / RFU BIN1 (11741810_x_at) / Fold change /veh BIN1 (11741810_x_at) / RFU WNT11 (11732464_a_at) / Fold change /veh WNT11 (11732464_a_at) / RFU C10orf10 (11716521_a_at) / Fold change /veh C10orf10 (11716521_a_at) / RFU C5orf56 (11738089_at) / Fold change /veh C5orf56 (11738089_at) / RFU CYB561 (11721691_x_at) / Fold change /veh CYB561 (11721691_x_at) / RFU ANKRD19P (11752326_a_at) / Fold change /veh ANKRD19P (11752326_a_at) / RFU OR2T12 /// OR2T33 /// OR2T8 (11738714_s_at) / Fold change /veh OR2T12 /// OR2T33 /// OR2T8 (11738714_s_at) / RFU VCAN (11748164_a_at) / Fold change /veh VCAN (11748164_a_at) / RFU JSRP1 (11732532_at) / Fold change /veh JSRP1 (11732532_at) / RFU KRTAP10-11 (11738290_x_at) / Fold change /veh KRTAP10-11 (11738290_x_at) / RFU MYO3A (11730013_a_at) / Fold change /veh MYO3A (11730013_a_at) / RFU EBF3 (11725865_a_at) / Fold change /veh EBF3 (11725865_a_at) / RFU CAMK2N1 (11719241_x_at) / Fold change /veh CAMK2N1 (11719241_x_at) / RFU C5orf56 (11738088_a_at) / Fold change /veh C5orf56 (11738088_a_at) / RFU OLFML3 (11715873_a_at) / Fold change /veh OLFML3 (11715873_a_at) / RFU LOC100653217 /// NTM (11731650_a_at) / Fold change /veh LOC100653217 /// NTM (11731650_a_at) / RFU MAPK11 (11762145_a_at) / Fold change /veh MAPK11 (11762145_a_at) / RFU FIZ1 (11724087_x_at) / Fold change /veh FIZ1 (11724087_x_at) / RFU OASL (11726364_x_at) / Fold change /veh OASL (11726364_x_at) / RFU SOX15 (11748057_x_at) / Fold change /veh SOX15 (11748057_x_at) / RFU CD79A (11719716_a_at) / Fold change /veh CD79A (11719716_a_at) / RFU HIST1H1D (11736915_at) / Fold change /veh HIST1H1D (11736915_at) / RFU CASKIN2 (11723855_a_at) / Fold change /veh CASKIN2 (11723855_a_at) / RFU LOC730098 (11760151_x_at) / Fold change /veh LOC730098 (11760151_x_at) / RFU OR4N2 (11742367_at) / Fold change /veh OR4N2 (11742367_at) / RFU PRRT2 (11749266_a_at) / Fold change /veh PRRT2 (11749266_a_at) / RFU SNX32 (11753110_a_at) / Fold change /veh SNX32 (11753110_a_at) / RFU CDHR5 (11726645_a_at) / Fold change /veh CDHR5 (11726645_a_at) / RFU RCAN1 (11760418_a_at) / Fold change /veh RCAN1 (11760418_a_at) / RFU FAM167A (11723789_a_at) / Fold change /veh FAM167A (11723789_a_at) / RFU FAM26E (11764081_at) / Fold change /veh FAM26E (11764081_at) / RFU ISYNA1 (11749810_s_at) / Fold change /veh ISYNA1 (11749810_s_at) / RFU ACY1 (11761880_at) / Fold change /veh ACY1 (11761880_at) / RFU 11764098_at / Fold change /veh 11764098_at / RFU SAMD14 (11745864_x_at) / Fold change /veh SAMD14 (11745864_x_at) / RFU NPB (11741838_a_at) / Fold change /veh NPB (11741838_a_at) / RFU TMPRSS6 (11731388_a_at) / Fold change /veh TMPRSS6 (11731388_a_at) / RFU KRTAP10-2 (11738614_at) / Fold change /veh KRTAP10-2 (11738614_at) / RFU ARHGAP8 /// PRR5-ARHGAP8 (11727945_x_at) / Fold change /veh ARHGAP8 /// PRR5-ARHGAP8 (11727945_x_at) / RFU KRTAP5-7 /// NADSYN1 (11734609_at) / Fold change /veh KRTAP5-7 /// NADSYN1 (11734609_at) / RFU RASL12 (11751679_a_at) / Fold change /veh RASL12 (11751679_a_at) / RFU CDKN2B (11736163_a_at) / Fold change /veh CDKN2B (11736163_a_at) / RFU PRF1 (11729649_at) / Fold change /veh PRF1 (11729649_at) / RFU, ZNF638 /// ZNF638-IT1 / Fold change vs veh, ZNF638 /// ZNF638-IT1 / RFU, PANK3 / Fold change vs veh, PANK3 / RFU, SH3YL1 / Fold change vs veh, SH3YL1 / RFU, ZEB2 / Fold change vs veh, ZEB2 / RFU, NRIP1 / Fold change vs veh, NRIP1 / RFU, PTTG1IP / Fold change vs veh, PTTG1IP / RFU, CAPN2 / Fold change vs veh, CAPN2 / RFU, MED14 / Fold change vs veh, MED14 / RFU, SNORA58 / Fold change vs veh, SNORA58 / RFU, C1orf63 / Fold change vs veh, C1orf63 / RFU, LRRFIP1 / Fold change vs veh, LRRFIP1 / RFU, NDUFAF7 / Fold change vs veh, NDUFAF7 / RFU, SLC12A2 / Fold change vs veh, SLC12A2 / RFU, IBTK / Fold change vs veh, IBTK / RFU, ESF1 / Fold change vs veh, ESF1 / Fold change vs veh, TMEM50B / RFU, TAOK1 / Fold change vs veh, TAOK1 / RFU, ACBD3 / Fold change vs veh, ACBD3 / RFU, TMA16 / Fold change vs veh, TMA16 / RFU, RWDD3 / Fold change vs veh, RWDD3 / RFU, BCAT1 / Fold change vs veh, BCAT1 / RFU, EDEM3 / Fold change vs veh, EDEM3 / RFU, TMEM33 / Fold change vs veh, TMEM33 / RFU, WDR75 / Fold change vs veh, WDR75 / RFU, AHCTF1 / Fold change vs veh, AHCTF1 / RFU, TFRC / Fold change vs veh, TFRC / RFU, ZDHHC17 / Fold change vs veh, ZDHHC17 / RFU, NOM1 / Fold change vs veh, NOM1 / RFU, ARL8B / Fold change vs veh, ARL8B / RFU, ZBTB11 / Fold change vs veh, ZBTB11 / RFU, TAMM41 / Fold change vs veh, TAMM41 / RFU, KIAA1704 /// LOC100996395 / Fold change vs veh, KIAA1704 /// LOC100996395 / RFU, ING1 / Fold change vs veh, ING1 / RFU, TRMT61B / Fold change vs veh, TRMT61B / RFU, FUBP3 / Fold change vs veh, FUBP3 / RFU, TP53 / Fold change vs veh, TP53 / RFU, TNKS2 / Fold change vs veh, TNKS2 / RFU, ZFP14 / Fold change vs veh, ZFP14 / RFU, ACTR2 / Fold change vs veh, ACTR2 / RFU, PPP3R1 / Fold change vs veh, PPP3R1 / RFU, PIK3R1 / Fold change vs veh, PIK3R1 / RFU, HNRNPA1 / Fold change vs veh, HNRNPA1 / RFU, RNF170 / Fold change vs veh, RNF170 / RFU, ZNF28 / Fold change vs veh, ZNF28 / RFU, RNGTT / Fold change vs veh, RNGTT / RFU, OGT / Fold change vs veh, OGT / RFU, BRD1 / Fold change vs veh, BRD1 / RFU, MARS / Fold change vs veh, MARS / RFU, ZNF655 / Fold change vs veh, ZNF655 / RFU, FAHD1 / Fold change vs veh, FAHD1 / RFU, BDP1 / Fold change vs veh, BDP1 / RFU, LRRCC1 / Fold change vs veh, LRRCC1 / RFU, ARID1A / Fold change vs veh, ARID1A / RFU, ZNF146 / Fold change vs veh, ZNF146 / RFU, ZNF330 / Fold change vs veh, ZNF330 / RFU, GPN3 / Fold change vs veh, GPN3 / RFU, C9orf123 / Fold change vs veh, C9orf123 / RFU, N4BP2L2 / Fold change vs veh, N4BP2L2 / RFU, ARFIP1 / Fold change vs veh, ARFIP1 / RFU, FAM179B / Fold change vs veh, FAM179B / RFU, BCL10 / Fold change vs veh, BCL10 / RFU, UHRF1BP1L / Fold change vs veh, UHRF1BP1L / RFU, BET1 / Fold change vs veh, BET1 / RFU, CNOT2 / Fold change vs veh, CNOT2 / RFU, ZNF268 / Fold change vs veh, ZNF268 / Fold change vs veh, ZNF507 / RFU, DGCR2 / Fold change vs veh, DGCR2 / RFU, WDSUB1 / Fold change vs veh, WDSUB1 / Fold change vs veh, HSP90B1 /// MIR3652 / RFU, ADSS / Fold change vs veh, ADSS / RFU, GK / Fold change vs veh, GK / RFU, ZNF148 / Fold change vs veh, ZNF148 / RFU, TAF9 / Fold change vs veh, TAF9 / RFU, SLC1A5 / Fold change vs veh, SLC1A5 / RFU, SLMO2 / Fold change vs veh, SLMO2 / RFU, ABCC4 / Fold change vs veh, ABCC4 / RFU, LOC101060439 /// RAP1B / Fold change vs veh, LOC101060439 /// RAP1B / RFU, RFX7 / Fold change vs veh, RFX7 / RFU, GTPBP10 / Fold change vs veh, GTPBP10 / RFU, CNEP1R1 / Fold change vs veh, CNEP1R1 / RFU, BIVM-ERCC5 /// ERCC5 / Fold change vs veh, BIVM-ERCC5 /// ERCC5 / RFU, ILF3 / Fold change vs veh, ILF3 / RFU 11762660_at / Fold change /veh 11762660_at / RFU VCAN (11757783_s_at) / Fold change /veh VCAN (11757783_s_at) / RFU DDX43 (11728927_at) / Fold change /veh DDX43 (11728927_at) / RFU KRT8 (11758188_x_at) / Fold change /veh KRT8 (11758188_x_at) / RFU NKD1 (11759106_at) / Fold change /veh NKD1 (11759106_at) / RFU SRD5A1 (11742802_a_at) / Fold change /veh SRD5A1 (11742802_a_at) / RFU TPSAB1 /// TPSB2 (11721975_s_at) / Fold change /veh TPSAB1 /// TPSB2 (11721975_s_at) / RFU GSTM3 (11746129_a_at) / Fold change /veh GSTM3 (11746129_a_at) / RFU IL23R (11737362_x_at) / Fold change /veh IL23R (11737362_x_at) / RFU TMEM51 (11727254_a_at) / Fold change /veh TMEM51 (11727254_a_at) / RFU PIWIL2 (11732686_x_at) / Fold change /veh PIWIL2 (11732686_x_at) / RFU ORM1 (11744905_x_at) / Fold change /veh ORM1 (11744905_x_at) / RFU CCDC152 (11743942_at) / Fold change /veh CCDC152 (11743942_at) / RFU ECM1 (11717891_a_at) / Fold change /veh ECM1 (11717891_a_at) / RFU IL23R (11748794_a_at) / Fold change /veh IL23R (11748794_a_at) / RFU TNFAIP8L3 (11732012_x_at) / Fold change /veh TNFAIP8L3 (11732012_x_at) / RFU MBOAT4 (11741988_at) / Fold change /veh MBOAT4 (11741988_at) / RFU 11764193_at / Fold change /veh 11764193_at / RFU TMEM53 (11763286_at) / Fold change /veh TMEM53 (11763286_at) / RFU MAGEB2 (11727129_at) / Fold change /veh MAGEB2 (11727129_at) / RFU TMEM200A (11744735_a_at) / Fold change /veh TMEM200A (11744735_a_at) / RFU CCDC152 (11751479_a_at) / Fold change /veh CCDC152 (11751479_a_at) / RFU FAM211A (11726209_a_at) / Fold change /veh FAM211A (11726209_a_at) / RFU RGS16 (11746705_a_at) / Fold change /veh RGS16 (11746705_a_at) / RFU VCAN (11755009_s_at) / Fold change /veh VCAN (11755009_s_at) / RFU RHOB (11743442_s_at) / Fold change /veh RHOB (11743442_s_at) / RFU RGS16 (11720943_a_at) / Fold change /veh RGS16 (11720943_a_at) / RFU RGS16 (11720944_at) / Fold change /veh RGS16 (11720944_at) / RFU, VPS4B / Fold change vs veh, VPS4B / RFU, CREB1 / Fold change vs veh, CREB1 / RFU, DNAJC13 / Fold change vs veh, DNAJC13 / RFU, GNAQ / Fold change vs veh, GNAQ / RFU, CDK5R1 / Fold change vs veh, CDK5R1 / RFU, ZRANB3 / Fold change vs veh, ZRANB3 / RFU, CUL4A / Fold change vs veh, CUL4A / RFU, CCNY / Fold change vs veh, CCNY / RFU, UFL1 / Fold change vs veh, UFL1 / RFU, COG3 / Fold change vs veh, COG3 / RFU, DIAPH2 / Fold change vs veh, DIAPH2 / RFU, SKA2 / Fold change vs veh, SKA2 / RFU, AFF3 / Fold change vs veh, AFF3 / RFU, LMF1 / Fold change vs veh, LMF1 / RFU, IPO11 / Fold change vs veh, IPO11 / RFU, DFFB / Fold change vs veh, DFFB / RFU, FOXP1 / Fold change vs veh, FOXP1 / RFU, CARD8 / Fold change vs veh, CARD8 / RFU, STRN3 / Fold change vs veh, STRN3 / RFU, ADK / Fold change vs veh, ADK / RFU, RASSF2 / Fold change vs veh, RASSF2 / RFU, WIPF1 / Fold change vs veh, WIPF1 / RFU, LARP1B / Fold change vs veh, LARP1B / RFU, RASA1 / Fold change vs veh, RASA1 / RFU, RB1 / Fold change vs veh, RB1 / RFU, PPFIA1 / Fold change vs veh, PPFIA1 / RFU, MAT2A / Fold change vs veh, MAT2A / RFU, CCT5 / Fold change vs veh, CCT5 / RFU, WDR92 / Fold change vs veh, WDR92 / RFU, CUX1 / Fold change vs veh, CUX1 / RFU, TTC7A / Fold change vs veh, TTC7A / RFU, TMEM135 / Fold change vs veh, TMEM135 / RFU, DEPTOR / Fold change vs veh, DEPTOR / RFU, CPM / Fold change vs veh, CPM / RFU, DNAJB6 / Fold change vs veh, DNAJB6 / RFU, CACNA2D3 / Fold change vs veh, CACNA2D3 / RFU, DTX4 / Fold change vs veh, DTX4 / RFU, TFCP2 / Fold change vs veh, TFCP2 / RFU, GMCL1 /// GMCL1P1 / Fold change vs veh, GMCL1 /// GMCL1P1 / RFU, AEBP2 / Fold change vs veh, AEBP2 / RFU, SNHG1 /// SNORD22 /// SNORD25 /// SNORD26 /// SNORD27 /// SNORD28 /// SNORD29 /// SNORD31 / Fold change vs veh, SNHG1 /// SNORD22 /// SNORD25 /// SNORD26 /// SNORD27 /// SNORD28 /// SNORD29 /// SNORD31 / Fold change (Aza/veh), C12orf56 (ProbeSet 11735607_a_at) / Fold change (ACY-1035/veh), C12orf56 (ProbeSet 11735607_a_at) / Fold change (Aza/veh), FGFR1OP (ProbeSet 11751329_s_at) / Fold change (ACY-1035/veh), FGFR1OP (ProbeSet 11751329_s_at) / Fold change (Aza/veh), VPS36 (ProbeSet 11739960_a_at) / Fold change (ACY-1035/veh), VPS36 (ProbeSet 11739960_a_at) / RFU SYPL1 (11715823_x_at) / Fold change /veh SYPL1 (11715823_x_at) / RFU IGFBP7 (11715501_s_at) / Fold change /veh IGFBP7 (11715501_s_at) / RFU REEP3 (11722064_at) / Fold change /veh REEP3 (11722064_at) / RFU IGLL1 (11728026_x_at) / Fold change /veh IGLL1 (11728026_x_at): dose or concentration left out as unconfirmed.

With `Nc1ccc(-c2cccs2)cc1NC(=O)c1ccc2c(c1)cc(C1CC1)n2CCN1CCOCC1` [ACY-1035], the “RFU, ACBD3” value amounted to 241.56 RFU.
